Data taken from publication PMC10373627, “The Stability of Synthetic Cathinones and the Study of Potential Intake Biomarkers in the Biological Material from a Case of 3-CMC Poisoning” (Journal of Analytical Toxicology, 2023).
Where two headings read alike, the source gives them in different places.

Assays:
[1] = Stability study in the authentic autopsy blood sample (HPLC-ESI-MS-MS / HPLC-ESI-MS); type: in vitro ADME, human
Experimental: (§1) Due to the positive result of the identification analysis of the fluid from the Venflon, the biological material (blood and urine) was properly preserved on the same day. In the case of the urine sample, the pH was first measured using a universal indicator paper (pH = 6.0). The blood sample was preserved in a tube with sodium fluoride (NaF) and potassium oxalate (KOx). The biological material was divided into three parts, each with a volume of 1 mL. The first part was stored at 4°C. The second part was acidified with 1 M HCl: 100 µL of HCl was added to 1 mL of the blood sample to obtain pH <7, and 50 µL of HCl was added to 1 mL of the urine sample to obtain pH = 4.2. The third part of the blood and urine samples was stored at −30°C.
(§2) The 200 µL of blank, calibration and quality control (QC) blood samples and the person’s blood and urine samples were enriched with the addition of methanolic IS 4-CEC-d5. For the blood sample, the final IS concentration was 100 ng/mL, and for the urine sample, it was 1,000 ng/mL. A homogenizing element in the form of a 5-mm-diameter stainless steel bead was added to the Eppendorf Tubes containing the samples. The samples were then deproteinized with frozen acetonitrile (400 µL). The samples were then centrifuged, and the supernatant was evaporated in a stream of nitrogen in a 40°C sand bath. The dry residue was dissolved in 100 µL of a mixture of phase A and B solution in a volume ratio of 60:40 (v/v). Mobile phase A is a mixture of 2 mM ammonium formate and 0.2% formic acid solution in water (v/v), and phase B is a mixture of 2 mM ammonium formate and 0.2% formic acid solution in acetonitrile (v/v).
An Agilent 1200 liquid chromatograph (Agilent) equipped with a binary pump (G1312 A) and an autosampler (G1329 A) was used. The chromatographic separation was performed with a Poroshell 120 EC-C18 column (3.0 × 100 mm, particle size 2.7 μm, Agilent). The column was thermostated at 40°C.
The flow of the mobile phases through the chromatographic column occurred at a programmed gradient of mobile phase composition and flow rate (initially, 95% of phase A and 5% of phase B at a flow rate of 0.5 mL/min; then, the proportion of phases was increased linearly to 90% of phase B at a flow rate of 1.0 mL/min at 10 minutes, and the condition was maintained for 2 min). Subsequently, the proportion of phases was increased linearly to 95% of phase B at a flow rate of 1.0 mL/min at 15 minutes. The volume of the samples injected into the chromatographic column was 15 μL.
A 6410 triple-quadrupole mass spectrometer (Agilent) with an electrospray ionization (ESI) source, operated under a positive mode, was used. The operational parameters of the ESI source were as follows: vaporizing temperature 350 °C, pressure of the nebulizing gas 40 psi, flow of the drying gas 9 L/min and capillary potential 3.5 kV. The multiple reaction monitoring (MRM) was employed. The fragmentation parameters of the analyzed compounds are listed in Table I. For the analysis of the selected potential biomarker, dihydro-3-CMC, the total ion current scanning mode was used in the m/z range of 50–650 amu.
While planning the experiment, the limitation was the amount of the biological material secured during the autopsy, as it came from an authentic case. The reference point (day 1) was the extraction of the biological material stored at 4°C for 24 hours using the procedure described earlier. The deproteination was performed the day after the autopsy was conducted, and the biological material was preserved. Subsequently, all the adequately preserved biological material was examined similarly after 2, 4 and 12 months. These intervals were chosen on the basis of the time that elapses between the autopsy and the intervals on which toxicological examinations are most often ordered to the Toxicology Laboratory of the Department of Forensic Medicine in Krakow by the Prosecutor’s Office. […]

[2] = Stability study in the authentic autopsy urine sample (HPLC-ESI-MS-MS / HPLC-ESI-MS); type: in vitro ADME, human
Experimental: as §1
as §2, with “acetonitrile (v/v). […]” for “acetonitrile (v/v).”
A 6410 triple-quadrupole mass spectrometer (Agilent) with an electrospray ionization (ESI) source, operated under a positive mode, was used. […] The fragmentation parameters of the analyzed compounds are listed in Table I. For the analysis of the selected potential biomarker, dihydro-3-CMC, the total ion current scanning mode was used in the m/z range of 50–650 amu. […]

[3] = GC-MS identification of 3-CMC and its metabolites in the person's urine sample after derivatization; type: in vivo, human; conditions: fatal poisoning case; for presence in urine sample: GC-MS after acetylation; for amount present in urine sample: GC-MS after trimethylsilylation
Experimental: The fluid from the Venflon was acetylated and then analyzed by gas chromatography coupled to mass spectrometry (GC--MS), as described by Synowiec et al. ([8]). Screening analysis was performed using a library developed by Pfleger, Maurer and Weber ([9]), which contains a broad group of compounds, including acetyl or trimethylsilyl derivatives, as well as the authors’ library of SCs ([8]). The analysis was conducted on the day of the autopsy, which was 2 days after the body was discovered.
Following preliminary analytical results indicating the presence of chloromethcathinone (CMC), the liquid from the Venflon further underwent a trimethylsilylation process ([8]) to distinguish the constitutional isomer of CMC.
The same procedure was carried out in the urine sample after SPE, according to the methods described in the authors’ earlier works ([10], [11]).

[4] = set-up: method as in PMID 30557825; conditions: cited from earlier work
[5] = set-up: method as in PMID 30557825; conditions: cited from earlier work; remark: listed apart in the source
[6] = set-up: method as in PMID 30636991; conditions: cited from earlier work
[7] = set-up: method as in PMID 32407550; conditions: cited from earlier work
[8] = any given storage conditions (4°C, 4°C + HCl, −30°C), 12 months

CNC(C)C(O)c1cccc(Cl)c1 (centres unmarked) [dihydro-3-CMC]
stability in blood sample [1, 8]: high stability | stability in urine sample [2, 8]: high stability | presence in urine sample [3]: mainly | amount present in urine sample [3]: mainly present

CNC(C)C(=O)c1ccc(Cl)cc1 (centres unmarked) [4-CMC, 4-chloromethcathinone]
estimated time for complete degradation in blood ([4]; room temperature): 22 days | estimated time for complete degradation in blood ([4]; stored at 5°C (refrigerated), blank blood enriched with 4-CMC): ~4 months | half-life in blood sample ([4]; stored at 5°C): 24 h | estimated time for complete degradation in blood ([4]; stored at −26°C): 11.6 months | estimated time for complete degradation in urine ([5]; 5°C): 4.4 months | estimated time for complete degradation in urine ([5]; 24°C): 24 days | half-life in urine sample ([5]; urine pH = 5): ~2.5 months | estimated time for complete degradation in urine ([5]; −26°C): > 3 years | decrease in concentration in serum sample ([6]; 3 days of storage at 4°C, compared to original extraction): 65% | concentration in serum sample ([6]; 113 days (∼3.7 months) after the original extraction): below the LOQ | concentration in serum sample ([6]; day 0): 11.5 ng/mL | concentration in serum sample ([6]; day 3, storage at 4°C): 4.0 ng/mL | decrease in concentration in blood sample ([7]; 3 days at 23°C): 54% | decrease in concentration in blood sample ([7]; 30 days of storage at 4°C): 63% | total decay time in blood sample ([7]; refrigerated storage, blood from an authentic case): 90 days | stability in blood sample ([7]; stored at −15°C, entire experiment (90 days)): stable

CC(=O)NC(C)C(=O)c1cccc(Cl)c1 (centres unmarked) [N-desmethyl-3-CMC-AC]
presence in urine sample [3]: presence

CC(=O)NC(C)C(OC(C)=O)c1cccc(Cl)c1 (centres unmarked) [N-desmethyl-dihydro-3-CMC-2AC]
presence in urine sample [3]: presence

CNC(C)C(=O)c1cccc(Cl)c1 (centres unmarked) [3-CMC, 1-(3-chlorophenyl)-2-(methylamino)propan-1-one]
decomposition on storage of the biological material ([1]; 24 hours of storage at 4°C): significant decomposition | time for which the parent substance could be detected in blood sample ([1]; acidified blood sample, ∼4°C): 4 months | time after which detection in blood sample was still possible ([1]; blood stored at −30°C): ≥ 12 months | detection in blood sample ([1]; blood stored at ∼4°C, after 2 months): no longer detected | 3-CMC concentration in blood sample ([1]; storage 4°C + HCl, 2 months since autopsy): 580 ng/mL | 3-CMC concentration in blood sample ([1]; storage 4°C + HCl, 4 months since autopsy): 150 ng/mL | 3-CMC concentration in blood sample ([1]; storage 4°C + HCl, 12 months since autopsy): 0 ng/mL | 3-CMC concentration in blood sample ([1]; storage 4°C, 2 months since autopsy): 0 ng/mL | 3-CMC concentration in blood sample ([1]; storage 4°C, 4 months since autopsy): 0 ng/mL | 3-CMC concentration in blood sample ([1]; storage 4°C, 12 months since autopsy): 0 ng/mL | 3-CMC concentration in blood sample ([1]; storage 4°C, 1 day since autopsy (reference point, 24 hours at 4°C)): 880 ng/mL | 3-CMC concentration in blood sample ([1]; storage −30°C, 2 months since autopsy): 2,200 ng/mL | 3-CMC concentration in blood sample ([1]; storage −30°C, 4 months since autopsy): 2,500 ng/mL | 3-CMC concentration in blood sample ([1]; storage −30°C, 12 months since autopsy): 1,100 ng/mL | 3-CMC concentration in blood sample ([1]; stored at −30°C (frozen immediately)): > 2,000 ng/mL | stability in urine sample ([2]; after acidification and freezing, investigated period 12 months): stable throughout the investigated time period | detection in urine sample ([2]; urine pH ∼6, 4°C, after 2 months): impossible to detect | presence in urine sample [3]: presence | amount present in urine sample [3]: trace amounts
